What was measured:
[1] = molecular target: T1, Human μ-opioid (MOP) (Homo sapiens, UniProt P35372); assay: Radioligand binding, human μ-opioid (MOP) membranes, FlashPlate, [3H]-Naloxone; conditions: compound at 10 μM; for A7 radioligand binding inhibition: human μ-opioid (MOP) membranes
T1 construct: purchased Perkin Elmer Biosignal
In short: (§1)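 Cloned human receptor membranes were coated onto FlashPlate wells and incubated with radioligand and compound (added from a 0.5 mM DMSO daughter plate) for 1 hour at room temperature in the dark. Scintillation counting gave percent inhibition, with DMSO defining total and reference ligand defining non-specific binding.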

[2] = molecular target: T2, Human melanocortin (MC5) (Homo sapiens, UniProt P33032); assay: Radioligand binding, human melanocortin MC5 membranes, FlashPlate, [125I]-NDP-αMSH; conditions: compound at 10 μM; for A5 radioligand binding inhibition: human melanocortin MC5 membranes
T2 construct: purchased Perkin Elmer Biosignal
In short: as §1

[3] = molecular target: T3, Human Melanocortin (MC4) (Homo sapiens, UniProt P32245); assay: Radioligand binding, human melanocortin MC4 membranes, FlashPlate, [125I]-NDP-αMSH; conditions: compound at 10 μM; for A4 radioligand binding inhibition: human melanocortin MC4 membranes
T3 construct: purchased Perkin Elmer Biosignal
In short: as §1

[4] = molecular target: T4, Human κ-Opioid (KOP) (Homo sapiens, UniProt P41145); assay: Radioligand binding, human κ-opioid (KOP) membranes, filtration, [3H]-Diprenorphine; conditions: compound at 10 μM; for A2 radioligand binding inhibition: human κ-opioid (KOP) membranes
T4 construct: purchased Perkin Elmer Biosignal
In short: (§2)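 Percent inhibition of radioligand binding measured on recombinant human membranes: NK1 with [125I]-Substance P, KOP with [3H]-Diprenorphine. Incubation 1 h at room temperature, then harvest onto 0.3% PEI-soaked filters, cold Tris-HCl pH 7.4 washes and scintillation counting; non-specific binding from reference ligand wells.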

[5] = molecular target: T5, Human neurokinin (NK1) (Homo sapiens, UniProt P25103); assay: Radioligand binding, human neurokinin NK1 membranes, filtration, [125I]-Substance P; conditions: compound at 10 μM; for A8 radioligand binding inhibition: human neurokinin NK1 membranes
T5 construct: purchased Perkin Elmer Biosignal
In short: as §2

[6] = molecular target: T6, Mouse urotensin (mUR2) (Mus musculus, UniProt Q8VIH9); assay: Radioligand binding, mouse urotensin mUR2 membranes, FlashPlate, [125I]-Urotensin II; conditions: compound at 10 μM; for A11 radioligand binding inhibition: mouse urotensin mUR2 membranes
T6 construct: purchased Perkin Elmer Biosignal
T6 sequence (Q8VIH9 1-385): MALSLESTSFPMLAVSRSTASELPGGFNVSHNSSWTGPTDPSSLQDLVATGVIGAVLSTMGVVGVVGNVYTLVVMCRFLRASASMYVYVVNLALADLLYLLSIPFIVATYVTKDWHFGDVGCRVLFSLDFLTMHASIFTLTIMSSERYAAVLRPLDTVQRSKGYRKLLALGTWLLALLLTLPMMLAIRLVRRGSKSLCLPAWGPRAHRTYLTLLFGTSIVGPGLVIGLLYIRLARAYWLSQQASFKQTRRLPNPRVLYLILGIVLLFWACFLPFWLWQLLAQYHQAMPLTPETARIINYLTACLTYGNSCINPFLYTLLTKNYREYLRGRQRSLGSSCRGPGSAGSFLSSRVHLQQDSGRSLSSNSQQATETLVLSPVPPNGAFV
In short: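 Cloned mouse urotensin (mUR2) receptor membranes from Perkin Elmer Biosignal were immobilized in FlashPlate microplates using a proprietary coating. Each well got 19.5 μl buffer, then 0.5 μl of DMSO, reference ligand, or compound. Adding 5 μl of [125I]-Urotensin II, diluted to 5× final concentration in binding buffer, started binding. Plates were sealed with TopSeal-A and incubated 1 hour at room temperature in the dark. Wells were counted for 30 seconds each on a TopCount after a 60-second delay, and percentage inhibition was calculated.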

[7] = molecular target: T7, Human Melanocortin (MC3) (Homo sapiens, UniProt P41968); assay: Radioligand binding, human melanocortin MC3 membranes, FlashPlate, [125I]-NDP-αMSH; conditions: compound at 10 μM; for A3 radioligand binding inhibition: human melanocortin MC3 membranes
T7 construct: purchased Perkin Elmer Biosignal
In short: as §1

[8] = molecular target: T8, Human neuropeptide Y (NPY-Y1) (Homo sapiens, UniProt P25929); assay: Radioligand binding, human neuropeptide Y NPY-Y1 membranes, FlashPlate, [125I]-PYY; conditions: compound at 10 μM
T8 construct: purchased Perkin Elmer Biosignal
T8 sequence (P25929 1-384): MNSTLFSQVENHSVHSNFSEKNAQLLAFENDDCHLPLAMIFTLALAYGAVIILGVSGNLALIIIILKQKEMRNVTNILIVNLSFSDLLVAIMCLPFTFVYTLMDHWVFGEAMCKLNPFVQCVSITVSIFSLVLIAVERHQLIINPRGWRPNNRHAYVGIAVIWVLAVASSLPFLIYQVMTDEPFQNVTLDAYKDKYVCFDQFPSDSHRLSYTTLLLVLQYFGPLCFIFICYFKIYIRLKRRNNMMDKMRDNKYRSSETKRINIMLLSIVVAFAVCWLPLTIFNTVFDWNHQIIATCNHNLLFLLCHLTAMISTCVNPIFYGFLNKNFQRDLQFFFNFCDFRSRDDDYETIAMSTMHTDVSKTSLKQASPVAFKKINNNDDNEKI
In short: as §1

[9] = molecular target: T9, Human δ-opioid (DOP) (Homo sapiens, UniProt P41143); assay: Radioligand binding, human δ-opioid (DOP) membranes, FlashPlate, [3H]-Bremazocine; conditions: compound at 10 μM; for A1 radioligand binding inhibition: human δ-opioid (DOP) membranes
T9 construct: purchased Perkin Elmer Biosignal
In short: as §1

[10] = molecular target: T10, Human opioid (ORL1) (Homo sapiens, UniProt P41146); assay: Radioligand binding, human opioid ORL1 membranes, FlashPlate, [125I]-Nociceptin; conditions: compound at 10 μM
T10 construct: purchased Perkin Elmer Biosignal
In short: as §1

[11] = molecular target: T11, Human melanin-concentrating hormone (MCH1) (Homo sapiens, UniProt Q99705); assay: Radioligand binding, human melanin-concentrating hormone MCH1 membranes, FlashPlate, [125I]-S36057; conditions: compound at 10 μM; for A6 radioligand binding inhibition: human MCH1 membranes
T11 construct: purchased Perkin Elmer Biosignal
In short: as §1

T9 sequence (P41143 whole entry): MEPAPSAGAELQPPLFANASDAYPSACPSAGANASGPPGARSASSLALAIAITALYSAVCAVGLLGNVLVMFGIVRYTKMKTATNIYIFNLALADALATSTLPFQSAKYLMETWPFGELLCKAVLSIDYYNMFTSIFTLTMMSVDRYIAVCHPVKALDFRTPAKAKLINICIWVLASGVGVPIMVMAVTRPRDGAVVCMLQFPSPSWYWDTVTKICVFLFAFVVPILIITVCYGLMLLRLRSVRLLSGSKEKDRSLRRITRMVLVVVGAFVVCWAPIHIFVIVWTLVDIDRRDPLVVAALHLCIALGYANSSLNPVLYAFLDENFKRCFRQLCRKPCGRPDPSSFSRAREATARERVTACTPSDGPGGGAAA
T10 sequence (P41146 whole entry): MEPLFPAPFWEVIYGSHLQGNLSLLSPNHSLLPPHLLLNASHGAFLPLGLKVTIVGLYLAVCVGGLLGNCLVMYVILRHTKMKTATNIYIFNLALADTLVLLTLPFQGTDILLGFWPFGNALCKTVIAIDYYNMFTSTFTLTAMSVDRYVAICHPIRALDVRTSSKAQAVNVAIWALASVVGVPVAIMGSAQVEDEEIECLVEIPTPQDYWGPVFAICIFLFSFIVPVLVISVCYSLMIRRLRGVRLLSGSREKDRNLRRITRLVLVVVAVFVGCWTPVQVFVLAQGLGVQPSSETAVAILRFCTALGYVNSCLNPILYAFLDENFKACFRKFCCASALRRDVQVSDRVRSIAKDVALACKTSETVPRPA
T1 sequence (P35372 whole entry): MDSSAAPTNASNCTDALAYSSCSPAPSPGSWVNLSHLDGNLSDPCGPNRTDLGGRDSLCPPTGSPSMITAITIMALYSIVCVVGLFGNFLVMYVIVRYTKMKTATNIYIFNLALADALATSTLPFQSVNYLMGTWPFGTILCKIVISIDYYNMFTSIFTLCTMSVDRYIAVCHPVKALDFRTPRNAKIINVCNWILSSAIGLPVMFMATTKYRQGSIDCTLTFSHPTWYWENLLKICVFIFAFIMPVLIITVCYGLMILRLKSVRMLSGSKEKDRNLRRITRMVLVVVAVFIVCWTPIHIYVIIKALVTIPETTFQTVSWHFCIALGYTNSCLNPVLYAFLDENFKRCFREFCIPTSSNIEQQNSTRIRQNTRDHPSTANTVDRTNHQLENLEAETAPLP
T4 sequence (P41145 whole entry): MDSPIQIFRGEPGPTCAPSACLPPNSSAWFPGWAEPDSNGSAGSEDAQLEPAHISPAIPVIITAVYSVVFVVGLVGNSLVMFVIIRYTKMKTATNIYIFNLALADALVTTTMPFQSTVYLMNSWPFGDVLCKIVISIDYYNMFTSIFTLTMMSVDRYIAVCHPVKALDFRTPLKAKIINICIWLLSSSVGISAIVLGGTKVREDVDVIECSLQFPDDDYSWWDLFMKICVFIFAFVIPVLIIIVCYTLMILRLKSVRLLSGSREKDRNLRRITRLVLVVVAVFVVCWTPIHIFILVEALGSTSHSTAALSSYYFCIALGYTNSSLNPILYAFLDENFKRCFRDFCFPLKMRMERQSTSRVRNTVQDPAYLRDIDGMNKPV
T11 sequence (Q99705 whole entry): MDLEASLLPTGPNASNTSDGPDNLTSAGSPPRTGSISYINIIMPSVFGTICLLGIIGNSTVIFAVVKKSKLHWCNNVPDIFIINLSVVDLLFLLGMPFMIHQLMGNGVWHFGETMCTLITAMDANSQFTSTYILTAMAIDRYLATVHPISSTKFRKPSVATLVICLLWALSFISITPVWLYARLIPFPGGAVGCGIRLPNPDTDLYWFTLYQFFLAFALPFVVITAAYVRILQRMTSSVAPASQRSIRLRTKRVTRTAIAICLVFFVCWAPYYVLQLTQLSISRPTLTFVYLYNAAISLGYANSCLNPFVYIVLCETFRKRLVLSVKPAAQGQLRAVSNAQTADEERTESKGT
T3 sequence (P32245 whole entry): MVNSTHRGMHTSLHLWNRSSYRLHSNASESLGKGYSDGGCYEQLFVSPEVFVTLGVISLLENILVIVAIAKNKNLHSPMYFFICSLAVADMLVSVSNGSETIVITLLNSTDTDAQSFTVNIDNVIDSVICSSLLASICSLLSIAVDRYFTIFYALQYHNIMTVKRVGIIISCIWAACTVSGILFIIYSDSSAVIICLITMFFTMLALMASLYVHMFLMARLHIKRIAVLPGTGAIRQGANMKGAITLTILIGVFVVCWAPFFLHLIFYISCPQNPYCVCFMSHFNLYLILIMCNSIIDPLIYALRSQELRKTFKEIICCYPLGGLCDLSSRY
T7 sequence (P41968 whole entry): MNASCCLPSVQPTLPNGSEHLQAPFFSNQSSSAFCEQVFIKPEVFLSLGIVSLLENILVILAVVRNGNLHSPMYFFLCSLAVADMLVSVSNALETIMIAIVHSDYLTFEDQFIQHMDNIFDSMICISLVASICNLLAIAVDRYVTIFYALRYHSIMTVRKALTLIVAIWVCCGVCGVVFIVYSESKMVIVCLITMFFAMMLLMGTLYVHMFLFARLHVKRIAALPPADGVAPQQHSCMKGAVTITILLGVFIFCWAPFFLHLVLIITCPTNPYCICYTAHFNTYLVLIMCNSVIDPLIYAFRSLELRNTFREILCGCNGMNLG
T5 sequence (P25103 whole entry): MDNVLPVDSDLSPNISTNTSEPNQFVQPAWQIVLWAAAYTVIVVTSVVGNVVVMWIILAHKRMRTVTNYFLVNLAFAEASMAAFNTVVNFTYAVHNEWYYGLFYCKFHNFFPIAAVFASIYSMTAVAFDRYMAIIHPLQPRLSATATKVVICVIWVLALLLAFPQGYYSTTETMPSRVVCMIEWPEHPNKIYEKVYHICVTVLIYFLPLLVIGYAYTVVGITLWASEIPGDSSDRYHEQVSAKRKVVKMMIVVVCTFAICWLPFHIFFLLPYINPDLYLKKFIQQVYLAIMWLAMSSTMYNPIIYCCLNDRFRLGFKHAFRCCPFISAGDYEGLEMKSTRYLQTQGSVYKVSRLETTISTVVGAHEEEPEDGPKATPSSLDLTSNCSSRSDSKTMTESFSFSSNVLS
T2 sequence (P33032 whole entry): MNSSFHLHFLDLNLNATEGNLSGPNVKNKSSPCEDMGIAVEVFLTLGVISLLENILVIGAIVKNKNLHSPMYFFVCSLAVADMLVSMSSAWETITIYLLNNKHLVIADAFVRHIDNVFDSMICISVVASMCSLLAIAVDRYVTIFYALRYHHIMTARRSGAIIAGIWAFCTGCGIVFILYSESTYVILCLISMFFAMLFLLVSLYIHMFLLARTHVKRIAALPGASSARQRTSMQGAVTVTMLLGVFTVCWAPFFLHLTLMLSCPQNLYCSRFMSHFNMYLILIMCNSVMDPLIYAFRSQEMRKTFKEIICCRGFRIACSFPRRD

COC[C@H]1OC(OCc2ccc3ccccc3c2)[C@H](NC(=O)CCNC(=N)N)[C@@H](OCc2ccccc2)[C@@H]1O (stereo partly shown) [compound 19]
A7 radioligand binding inhibition [1]: + (“+” indicates greater than 50% inhibition at 10 μM)
A5 radioligand binding inhibition [2]: − (“−” indicates less than 50% inhibition at 10 μM)
A4 radioligand binding inhibition [3]: − (“−” indicates less than 50% inhibition at 10 μM)
A2 radioligand binding inhibition [4]: − (“−” indicates less than 50% inhibition at 10 μM)
A8 radioligand binding inhibition [5]: + (“+” indicates greater than 50% inhibition at 10 μM)
A11 radioligand binding inhibition [6]: − (“−” indicates less than 50% inhibition at 10 μM)
A3 radioligand binding inhibition [7]: − (“−” indicates less than 50% inhibition at 10 μM)
A9 radioligand binding inhibition ([8]; human NPY-Y1 membranes): − (“−” indicates less than 50% inhibition at 10 μM)
A1 radioligand binding inhibition [9]: − (“−” indicates less than 50% inhibition at 10 μM)
A10 radioligand binding inhibition ([10]; human ORL1 membranes): − (“−” indicates less than 50% inhibition at 10 μM)
A6 radioligand binding inhibition [11]: − (“−” indicates less than 50% inhibition at 10 μM)

CO[C@H]1[C@H](O)[C@@H](COCc2ccc(-c3ccccc3)cc2)OC(OCc2cccc(O)c2)[C@@H]1NC(=O)CCCN (stereo partly shown) [compound 164]
A7 radioligand binding, percentage inhibition ([1]; [3H]-Naloxone): − (“−” indicates less than 50% inhibition at 10 μM)
A5 radioligand binding, percentage inhibition ([2]; [125I]-NDP-αMSH): − (“−” indicates less than 50% inhibition at 10 μM)
A4 radioligand binding, percentage inhibition ([3]; [125I]-NDP-αMSH): + (“+” indicates greater than 50% inhibition at 10 μM)
A2 radioligand binding, percentage inhibition ([4]; [3H]-Diprenorphine): − (“−” indicates less than 50% inhibition at 10 μM)
A8 radioligand binding, percentage inhibition ([5]; [125I]-Substance P): + (“+” indicates greater than 50% inhibition at 10 μM)
A11 radioligand binding, percentage inhibition ([6]; [125I]-Urotensin II): − (“−” indicates less than 50% inhibition at 10 μM)
A3 radioligand binding, percentage inhibition ([7]; [125I]-NDP-αMSH): − (“−” indicates less than 50% inhibition at 10 μM)
A9 radioligand binding, percentage inhibition ([8]; [125I]-PYY): − (“−” indicates less than 50% inhibition at 10 μM)
A1 radioligand binding, percentage inhibition ([9]; [3H]-Bremazocine): − (“−” indicates less than 50% inhibition at 10 μM)
A10 radioligand binding, percentage inhibition ([10]; [125I]-Nociceptin): − (“−” indicates less than 50% inhibition at 10 μM)
A6 radioligand binding, percentage inhibition ([11]; [125I]-S36057): − (“−” indicates less than 50% inhibition at 10 μM)

COC1C(O)C(COCc2ccc3ccccc3c2)OC(OCc2ccc(Cl)cc2)C1NC(=O)C1CCCN1 (stereo not shown) [compound 347]
A7: inhibition of radioligand binding, human μ-opioid (MOP) ([1]; [3H]-Naloxone): − (“−” indicates less than 50% inhibition at 10 μM)
A5: inhibition of radioligand binding, human melanocortin (MC5) ([2]; [125I]-NDP-αMSH): − (“−” indicates less than 50% inhibition at 10 μM)
A4: inhibition of radioligand binding, human melanocortin (MC4) ([3]; [125I]-NDP-αMSH): − (“−” indicates less than 50% inhibition at 10 μM)
A2: inhibition of radioligand binding, human κ-opioid (KOP) ([4]; [3H]-Diprenorphine): − (“−” indicates less than 50% inhibition at 10 μM)
A8: inhibition of radioligand binding, human neurokinin (NK1) ([5]; [125I]-Substance P): + (“+” indicates greater than 50% inhibition at 10 μM)
A11: inhibition of radioligand binding, mouse urotensin (mUR2) ([6]; [125I]-Urotensin II): − (“−” indicates less than 50% inhibition at 10 μM)
A3: inhibition of radioligand binding, human melanocortin (MC3) ([7]; [125I]-NDP-αMSH): − (“−” indicates less than 50% inhibition at 10 μM)
A9: inhibition of radioligand binding, human neuropeptide Y (NPY-Y1) ([8]; [125I]-PYY): − (“−” indicates less than 50% inhibition at 10 μM)
A1: inhibition of radioligand binding, human δ-opioid (DOP) ([9]; [3H]-Bremazocine): − (“−” indicates less than 50% inhibition at 10 μM)
A10: inhibition of radioligand binding, human opioid (ORL1) ([10]; [125I]-Nociceptin): − (“−” indicates less than 50% inhibition at 10 μM)
A6: inhibition of radioligand binding, human melanin-concentrating hormone (MCH1) ([11]; [125I]-S36057): − (“−” indicates less than 50% inhibition at 10 μM)

N=C(N)NCC(=O)NC1C(OCc2ccc(-c3ccccc3)cc2)OC(COCc2ccccc2)C(O)C1OCc1ccc(Cl)cc1 (stereo not shown) [compound 400]
A7: inhibition of radioligand binding ([1]; [3H]-Naloxone, human MOP membranes): − (“−” indicates less than 50% inhibition at 10 μM)
A5: inhibition of radioligand binding ([2]; [125I]-NDP-αMSH, human MC5 membranes): + (“+” indicates greater than 50% inhibition at 10 μM)
A4: inhibition of radioligand binding ([3]; [125I]-NDP-αMSH, human MC4 membranes): + (“+” indicates greater than 50% inhibition at 10 μM)
A2: inhibition of radioligand binding ([4]; [3H]-Diprenorphine, human KOP membranes): − (“−” indicates less than 50% inhibition at 10 μM)
A8: inhibition of radioligand binding ([5]; [125I]-Substance P, human NK1 membranes): + (“+” indicates greater than 50% inhibition at 10 μM)
A11: inhibition of radioligand binding ([6]; [125I]-Urotensin II, mouse mUR2 membranes): − (“−” indicates less than 50% inhibition at 10 μM)
A3: inhibition of radioligand binding ([7]; [125I]-NDP-αMSH, human MC3 membranes): + (“+” indicates greater than 50% inhibition at 10 μM)
A9: inhibition of radioligand binding ([8]; [125I]-PYY, human NPY-Y1 membranes): − (“−” indicates less than 50% inhibition at 10 μM)
A1: inhibition of radioligand binding ([9]; [3H]-Bremazocine, human DOP membranes): − (“−” indicates less than 50% inhibition at 10 μM)
A10: inhibition of radioligand binding ([10]; [125I]-Nociceptin, human ORL1 membranes): + (“+” indicates greater than 50% inhibition at 10 μM)
A6: inhibition of radioligand binding ([11]; [125I]-S36057, human MCH1 membranes): + (“+” indicates greater than 50% inhibition at 10 μM)

COC[C@H]1OC(OCc2ccc(-c3ccccc3)cc2)[C@H](NC(=O)CCCN)[C@@H](OCc2ccc3ccccc3c2)[C@@H]1O (stereo partly shown) [compound 5]
A7 radioligand binding inhibition [1]: − (“−” indicates less than 50% inhibition at 10 μM)
A5 radioligand binding inhibition [2]: + (“+” indicates greater than 50% inhibition at 10 μM)
A4 radioligand binding inhibition [3]: − (“−” indicates less than 50% inhibition at 10 μM)
A2 radioligand binding inhibition [4]: − (“−” indicates less than 50% inhibition at 10 μM)
A8 radioligand binding inhibition [5]: + (“+” indicates greater than 50% inhibition at 10 μM)
A11 radioligand binding inhibition [6]: − (“−” indicates less than 50% inhibition at 10 μM)
A3 radioligand binding inhibition [7]: − (“−” indicates less than 50% inhibition at 10 μM)
A9 radioligand binding inhibition ([8]; human NPY-Y1 membranes): − (“−” indicates less than 50% inhibition at 10 μM)
A1 radioligand binding inhibition [9]: − (“−” indicates less than 50% inhibition at 10 μM)
A10 radioligand binding inhibition ([10]; human ORL1 membranes): − (“−” indicates less than 50% inhibition at 10 μM)
A6 radioligand binding inhibition [11]: − (“−” indicates less than 50% inhibition at 10 μM)

— US20080009418A1, “Selective Inhibitors” (Alchemia LTD., priority 2004, published 2008)
